Test results as given in US7374919B2 (GlycoZym ApS, priority 1998, dated 2008).
No end group written: not given here.

What was measured:
Assay type in all cases: biochemical
[1] = target: T1, β4Gal-T2 (Homo sapiens, UniProt O60909); assay: β4Gal-T2 galactosyltransferase activity assay (soluble enzyme, media of infected Sf9 cells); settings: for inhibition of β4Gal-T2 by high acceptor substrate concentrations: FIGS. 5A and 5B, to higher degree than bovine milk β4Gal-transferase and β4Gal-T3; for donor substrate utilisation by β4Gal-T2 (in words): with the acceptor substrates tested
T1 construct: An expression construct designed to encode amino acid residues 31-372 of β4Gal-T2 was prepared by RT-PCR; secretion signal of vector pAcGP67 (gp67 leader; own knowledge of the vector) (N); made in house; host or cells: Sf9 (Spodoptera frugiperda) cells, baculovirus; unpurified culture supernatant
T1 sequence (O60909 31-372): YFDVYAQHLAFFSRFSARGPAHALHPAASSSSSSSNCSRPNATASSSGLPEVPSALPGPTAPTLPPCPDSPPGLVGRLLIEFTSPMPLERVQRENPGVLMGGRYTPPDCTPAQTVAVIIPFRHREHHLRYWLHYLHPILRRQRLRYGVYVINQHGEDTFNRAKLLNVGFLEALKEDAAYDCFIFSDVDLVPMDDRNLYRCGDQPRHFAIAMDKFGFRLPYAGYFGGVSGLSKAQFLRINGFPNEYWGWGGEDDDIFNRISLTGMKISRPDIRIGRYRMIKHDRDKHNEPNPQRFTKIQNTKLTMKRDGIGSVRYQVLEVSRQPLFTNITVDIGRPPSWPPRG
Description: (§1) The PCR product were cloned into the BamHI site of pAcGP67 (Pharmingen), and the construct sequenced to verify correct insertion and sequence. The plasmid pAcGP67-β4Gal-T2-sol was co-transfected with Baculo-Goldä DNA (Pharmingen) as described previously (Bennett et al., 1996). Recombinant Baculo-virus were obtained after two successive amplifications in Sf9 cells grown in serum-containing medium, and titres of virus were estimated by titration in 24-well plates with monitoring of enzyme activities. Controls included pAcGP67-β4Gal-T3-sol (Almeida et al., 1997) and pAcGP67-GalNAc-T3-sol (Bennett et al., 1996).
(§2) Standard assays were performed in […] total reaction mixtures containing 25 mM Tris (pH 7.5), 10 mM MnCl2, 0.25% Triton X-100, […] UDP-[^14C]-Gal (2,300 cpm/nmol) (Amersham), and varying concentration of acceptor substrates (Sigma) (see Table I for structures). The soluble constructs were assayed with […] of culture supernatant from infected cells, whereas the full length construct was assayed with 1% Triton X-100 homogenates of washed cells. Bovine milk P1,4Gal-transferase (Sigma) was used as control.
Reaction products were quantified by Dowex-1 chromatography. […] The transfer of Gal was evaluated after precipitation by filtration through Whatman GF/C glass fiber filters.

[2] = target: T2, Bovine milk β4Gal-T (Bos taurus, UniProt P08037); assay: Bovine milk β4Gal-transferase activity assay (control enzyme)
T2 construct: Purified bovine milk enzyme; purchased Sigma; host or cells: bovine milk
T2 sequence (P08037 79-402 limits assumed): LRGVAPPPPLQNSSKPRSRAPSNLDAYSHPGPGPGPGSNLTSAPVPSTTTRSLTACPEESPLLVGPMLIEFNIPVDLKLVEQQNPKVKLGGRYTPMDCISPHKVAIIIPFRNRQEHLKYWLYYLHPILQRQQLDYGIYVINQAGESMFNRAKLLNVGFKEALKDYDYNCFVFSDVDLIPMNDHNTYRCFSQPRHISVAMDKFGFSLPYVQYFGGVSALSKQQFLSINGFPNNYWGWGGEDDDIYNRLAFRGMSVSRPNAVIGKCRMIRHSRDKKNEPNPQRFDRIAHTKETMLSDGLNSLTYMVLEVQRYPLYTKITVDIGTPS
Method: as §2
(§3) Reaction products were quantified by Dowex-1 chromatography. Assays with hen egg Ovalbumin (Sigma), asialo-fetuin (Sigma), and asialo-agalacto-fetuin (Sigma, treated with bgalactosidase) were performed with the standard reaction mixture modified to contain […] UDP-Gal, 54 mM NaCl, and 0.5 mg Ovalbumin. The transfer of Gal was evaluated after precipitation by filtration through Whatman GF/C glass fiber filters.

[3] = target: T3, β4Gal-T3 (Homo sapiens, UniProt O60512); assay: β4Gal-T3 galactosyltransferase activity assay (soluble enzyme, Sf9 media)
T3 construct: media from Sf9 cells expressing secreted forms of either β4Gal-T2 or -T3 were used as enzyme sources; secretion signal of vector pAcGP67 (gp67 leader; own knowledge of the vector) (N); made in house; host or cells: Sf9 cells, baculovirus; unpurified culture supernatant
Method: as §1, with “An expression construct designed to encode amino acid residues 31-372 of β4Gal-T2 was prepared by RT-PCR with mRNA from Colo205 cell line, using the primer pair EBER100FOR (5′-[…]; SEQ ID NO: 9) and EBER114 (5′-[…]; SEQ ID NO: 10) with BamH1 restriction sites (FIG. 2). The PCR” for “The PCR”
as §2, §3

[4] = substrate concentration 3 mM, media of infected Sf9 cells, background subtracted
[5] = substrate concentration 1 mM, media of infected Sf9 cells, background subtracted
[6] = substrate concentration 9 mM, media of infected Sf9 cells, background subtracted

T3 sequence (O60512 32-393 limits assumed): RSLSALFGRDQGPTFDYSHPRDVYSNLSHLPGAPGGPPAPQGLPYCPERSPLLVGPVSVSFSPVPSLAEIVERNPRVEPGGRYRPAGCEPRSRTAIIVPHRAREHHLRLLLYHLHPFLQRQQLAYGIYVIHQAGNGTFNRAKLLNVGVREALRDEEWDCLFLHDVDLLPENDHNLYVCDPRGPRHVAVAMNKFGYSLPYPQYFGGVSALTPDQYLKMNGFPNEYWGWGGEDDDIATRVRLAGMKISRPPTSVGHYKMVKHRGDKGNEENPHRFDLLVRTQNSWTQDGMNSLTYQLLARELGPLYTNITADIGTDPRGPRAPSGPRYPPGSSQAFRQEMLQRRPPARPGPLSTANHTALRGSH

β4Gal-T2 activity with acceptor substrate [1, 4] [nmol/min/mL]	β4Gal-T2 activity with acceptor substrate [1, 5] [nmol/min/mL]	β4Gal-T2 activity with acceptor substrate [1, 6] [nmol/min/mL]	Compound	other results
0.0	–	–	CC(=O)N[C@H]1[C@H](Oc2ccc3c(C)cc(=O)oc3c2)O[C@H](CO)[C@H](O)[C@@H]1O [4-Me-lumb-β-D-GalNAc]	–
0.0	–	–	Cc1cc(=O)oc2cc(O[C@@H]3O[C@H](CO)[C@H](O)[C@H](O)[C@H]3O)ccc12 [4-Me-lumb-β-D-Gal]	–
0.6	0.8	0.4	CC(=O)N[C@H]1[C@H](Oc2ccc3c(C)cc(=O)oc3c2)O[C@H](CO)[C@@H](O)[C@@H]1O [4-Me-lumb-β-D-GlcNAc]	–
0.0	–	–	O=[N+]([O-])c1ccccc1O[C@@H]1O[C@H](CO)[C@H](O)[C@H](O)[C@H]1O [o-Nph-β-D-Gal]	–
2.3	3.0	0.9	CC(=O)N[C@H]1[C@H](Oc2ccc([N+](=O)[O-])cc2)O[C@H](CO)[C@@H](O)[C@@H]1O [p-Nph-β-D-GlcNAc]	–
11.3	8.5	–	COC1OC(COC2OC(CO)C(O)C(O)C2NC(C)=O)C(O)C(O)C1O [β-D-CLcNAc-(1-6)-α-D-Man-1-OMe]	–
0.0	–	–	Bz-*-D-GalNAc	–

More lines, now with the values behind:

Compound	β4Gal-T2 activity with acceptor substrate [1, 4] [nmol/min/mL]	β4Gal-T2 activity with acceptor substrate [1, 5] [nmol/min/mL]	β4Gal-T2 activity with acceptor substrate [1, 6] [nmol/min/mL]	other results
CC(=O)N[C@H]1[C@@H](OCc2ccccc2)O[C@H](CO)[C@@H](O)[C@@H]1O [Bz-α-D-GlcNAc]	1.1	0.4	1.7	–
CC(=O)N[C@H]1[C@H](OCc2ccccc2)O[C@H](CO)[C@@H](O)[C@@H]1O [Bz-β-D-GlcNAc]	3.6	6.8	1.5	inhibition of β4Gal-T2 by high acceptor substrate concentrations [1]: inhibited at high concentrations; Km ([1]; β4Gal-T2, read-out: apparent Km for acceptor substrate): 160 µM; β4Gal-T2 activity with acceptor substrate ([1]; β-D-GlcNAc-1-Bz at 0.25 mM): 3.5 nmol/min/mL; Bovine milk β4Gal-T activity with acceptor substrate ([2]; β-D-GlcNAc-1-Bz at 0.625 mM): 3.4 nmol/min/µg; β4Gal-T3 activity with acceptor substrate ([3]; β-D-GlcNAc-1-Bz at 2 mM): 3.9 nmol/min/mL
CC(=O)N[C@H]1C(O)O[C@H](CO)[C@@H](O)[C@@H]1O (stereo partly drawn) [D-GlcNAc]	3.2	1.4	4.8	inhibition of β4Gal-T2 by high acceptor substrate concentrations [1]: inhibited at high concentrations
CC(=O)N[C@H]1[C@@H](OP(=O)(O)OP(=O)(O)OC[C@H]2O[C@@H](n3ccc(=O)[nH]c3=O)[C@H](O)[C@@H]2O)O[C@H](CO)[C@H](O)[C@@H]1O [UDP-GalNAc]	–	–	–	donor substrate utilisation by β4Gal-T2 (in words) [1]: did not utilise
CC(=O)N[C@H]1[C@@H](OP(=O)(O)OP(=O)(O)OC[C@H]2O[C@@H](n3ccc(=O)[nH]c3=O)[C@H](O)[C@@H]2O)O[C@H](CO)[C@@H](O)[C@@H]1O [UDP-GlcNAc]	–	–	–	donor substrate utilisation by β4Gal-T2 (in words) [1]: did not utilise
O=C[C@H](O)[C@@H](O)[C@H](O)[C@H](O)CO [glucose]	–	–	–	acceptor substrate of soluble β4Gal-T2 activity (in words) [1]: not an acceptor
CC(=O)N[C@H]1[C@@H](Oc2ccccc2[N+](=O)[O-])O[C@H](CO)[C@@H](O)[C@@H]1O [o-Nph-α-D-GlcNAc]	0.8	0.4	1.5	–
CC(=O)N[C@H]1[C@H](Oc2ccccc2[N+](=O)[O-])O[C@H](CO)[C@H](O)[C@@H]1O [o-Nph-β-D-GalNAc]	0.0	–	–	–
CC(=O)N[C@@H]1[C@@H](O)[C@H](O)[C@@H](CO)O[C@H]1Sc1ccc([N+](=O)[O-])cc1 [p-Nph-1-thio-β-D-GlcNAc]	1.6	1.2	0.2	–
COC1O[C@H](CO)[C@H](O)[C@H](O[C@@H]2O[C@H](CO)[C@H](O)[C@H](O)[C@H]2NC(C)=O)[C@H]1O (stereo partly drawn) [β-D-GlcNAc-(1-3)-β-D-Gal-1-OMe]	7.7	5.8	–	–
CC(=O)N[C@H]1[C@H](OCc2ccccc2)O[C@H](CO)[C@H](O)[C@@H]1O [βGalNAc-benzyl]	–	–	–	acceptor substrate of soluble β4Gal-T2 activity (in words) [1]: not
*-D-GalNAc-1-(FAPSNYPAL) (not fully specified) [GalNAc-glycopeptide acceptor substrate]	–	–	–	β4Gal-T2 activity with acceptor substrate ([1]; glycopeptides at 0.1 mM): 0.0 nmol/min/mL; Bovine milk β4Gal-T activity with acceptor substrate ([2]; glycopeptides at 0.1 mM): 0.0 nmol/min/µg; β4Gal-T3 activity with acceptor substrate ([3]; glycopeptides at 0.1 mM): 0.0 nmol/min/mL
Asialo-Fetuin: glycoprotein acceptor, asialo-fetuin (Sigma)	–	–	–	β4Gal-T2 activity with acceptor substrate ([1]; glycoproteins at 10 mg/ml): 0.2 nmol/min/mL; Bovine milk β4Gal-T activity with acceptor substrate ([2]; glycoproteins at 10 mg/ml): 0.1 nmol/min/µg; β4Gal-T3 activity with acceptor substrate ([3]; glycoproteins at 10 mg/ml): 0.0 nmol/min/mL
Asialo-agalacto-Fetuin: glycoprotein acceptor; asialo-fetuin (Sigma) treated with bgalactosidase	–	–	–	β4Gal-T2 activity with acceptor substrate ([1]; glycoproteins at 10 mg/ml): 2.8 nmol/min/mL; Bovine milk β4Gal-T activity with acceptor substrate ([2]; glycoproteins at 10 mg/ml): 0.8 nmol/min/µg; β4Gal-T3 activity with acceptor substrate ([3]; glycoproteins at 10 mg/ml): 0.7 nmol/min/mL
Bz-2-(2-β-D-GlcNAc)-α-D-GlcNAc	2.6	9.9	1.3	–
Lc3Cer	–	–	–	acceptor substrate of soluble β4Gal-T2 activity (in words) [1]: utilised
α-lactalbumin	–	–	–	effect of α-lactalbumin on activity with GlcNAc ([1]; β4Gal-T2, FIG. 4B): inhibited; concentration of α-lactalbumin to achieve maximum activity with Glc ([1]; β4Gal-T2, glucose as acceptor): 0.4 mg/mL; effect of α-lactalbumin on activity with GlcNAc ([2]; bovine milk enzyme, FIG. 4B): inhibited; concentration of α-lactalbumin to achieve maximum activity with Glc ([2]; bovine milk enzyme, glucose as acceptor): 0.1 mg/mL
β-D-GlcNAC-1-(FAPGSYPAL) (also: O-linked β-D-GlcNAc, site not given here) [synthetic O-linked βGlcNAc-glycopeptide]	–	–	–	β4Gal-T2 activity with acceptor substrate ([1]; glycopeptides at 0.1 mM): 1.3 nmol/min/mL; β4Gal-T3 activity with acceptor substrate ([3]; glycopeptides at 0.1 mM): 0.9 nmol/min/mL
